Data published in paper PMC8220105 (Computational and Structural Biotechnology Journal, 2021).
pKd: −log10 of the molar value.

Biological target: p38α MAPK (Homo sapiens, UniProt Q16539)
Experiment: microscale thermophoresis
Assay type: binding

p38α MAPK, sequence (Q16539 2-360): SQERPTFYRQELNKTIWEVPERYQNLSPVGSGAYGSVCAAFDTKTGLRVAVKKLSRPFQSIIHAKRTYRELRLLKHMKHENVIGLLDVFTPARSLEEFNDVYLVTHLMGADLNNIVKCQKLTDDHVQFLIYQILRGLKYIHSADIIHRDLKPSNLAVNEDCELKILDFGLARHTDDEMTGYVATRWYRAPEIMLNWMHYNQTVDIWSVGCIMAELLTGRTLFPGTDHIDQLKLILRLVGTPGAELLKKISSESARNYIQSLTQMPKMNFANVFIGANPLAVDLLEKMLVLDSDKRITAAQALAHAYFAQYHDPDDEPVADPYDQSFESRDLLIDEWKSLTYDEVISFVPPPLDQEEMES

Compound: COC(=O)[C@@]12OC[C@]34[C@H]([C@@H](O)[C@@H]1O)[C@@]1(C)CC(=O)C(O)=C(C)[C@@H]1C[C@H]3OC(=O)[C@H](OC(=O)CC(C)C)[C@@H]24 [bruceine A]
- pKd: 7.51
